SMILES strings stand for the structures.

For assay [1], the system named is Zucker diabetic fatty rat (ZDF-DRT-fa). Kind of assay: Plasma glucose in 6 week-old prediabetic Zucker diabetic fatty rats. In kind it is in vivo. The settings on record: value (SEM). As to the method: (§1) The activity of the compounds of the present invention was determined by testing the efficacy in vivo in Zucker diabetic rats.
(§2) The Zucker diabetic fatty rat (ZDF-DRT-fa) is a classic rodent model of diabetes associated with obesity and insulin resistance, with tissue specific defects in insulin sensitivity similar to human patients with type II diabetes mellitus. This animal model at six weeks of age is normoglycemic, but glucose intolerant (Clark JB, Palmer CJ, and Shaw WN: The diabetic Zucker fatty rat, Proceeding of the Society for Experimental Bioloqy and Medicine 173, 68-75, 1983; and Peterson RG, Shaw WN, Neel M, Little LA, Eichburg J: Zucker diabetic fatty rat as a model for non-insulin dependent diabetes mellitus. ILAR News 32:16-19, 1990.) Between seven and eight weeks of age, plasma glucose levels rise as the pancreatic beta cells lose their ability to secrete sufficient insulin to compensate for insulin resistance. In an attempt to maintain plasma glucose in normal range, the pancreas is forced to secrete increasing amount of insulin, resulting in hyperinsulinemia (Bue JM and Shaw WN: ZDF-Drt-fa rat: A new model with marked susceptibility to dietary manipulation. Diabetes 40:865A, 1991). The ZDF rat is usually studied between eight and nine weeks of age when it is hyperglycemic, hyperinsulinemic, and hyperlipemic, in an attempt to halt further decline of pancreatic function. The present study was carried out in six weeks old animals (prediabetic). The purpose of this study was to determine whether moxonidine treatment will prevent or delay onset of diabetes in the six weeks old prediabetic ZDF rat.
(§3) To determine the impact of treatment with the substituted aminopyrimidines of Formula I on the progression of disease 6 week-old ZDF animals were grouped into the following categories, with 5 animals assigned to each group. Group 1 Control (5008 chow ad libitum) Group 2 Moxonidine (10 mg/kg/day) Group 3 Pair fed to correct for decrease in food consumption in 10 mg/kg/day group
(§4) Rats were housed one per plastic cage with bedding and had free access to water and Purina Formulalab 5008 Chow (except pair fed group). Because previous studies had indicated a reduction in food consumption with moxonidine treatment, body weight and food consumption were monitored daily, and a group of control animals was pair fed to moxonidine treated group. Blood samples were collected from the tail vein. Plasma glucose and insulin levels are monitored weekly.
(§5) Plasma glucose was measured by coupled hexokinase method on the IL Monarch System (Instrumentation Laboratory, Lexington, MA). Plasma insulin was determined with radioimmunoassay kit from Diagnostics Products Corporation (San Diego, CA) using rat insulin as a standard.
(§6) Plasma glucose and plasma insulin were monitored weekly. The results of these in vivo experiments are set forth below in Tables 1 and 2. The value in parenthesis following the plasma glucose value and plasma insulin value is the standard error of the mean.

The test system is the same in assay [2]. The assay can be described thus: Plasma insulin in 6 week-old prediabetic Zucker diabetic fatty rats. In kind it is in vivo. The settings on record: value (SEM). As for the experimental part:
as §1, §2, §3, §4, §5, §6

The test system is the same in assay [3]. Kind of assay: Further study: plasma glucose in ZDF rats with dose reduction and withdrawal of treatment. Type of assay: in vivo. As to the method: as §3, §4, §5
A further study was carried out as described above, except that moxonidine treatment was reduced to 6.4 mg/kg/day for two days, followed by resumption of moxonidine treatment at 10 mg/kg/day for 13 days, and then stopping moxonidine treatment.

For assay [4], the system named is I1 receptors over α2 adrenergic receptors. Particulars: bovine RVLM; saturation binding; Ernsberger et al., J. Pharmacol. Exp. Ther., 264, 172-182 (1993); cited from earlier work.

In the case of `COc1nc(C)nc(Cl)c1N=C1NCCN1` [Moxonidine, 4-chloro-N-(imidazoline-2-ylidene) -6-methoxy-2-methyl-5-pyrimidineamine], the “Plasma Glucose” value in assay [1] (Day 0, 10 mg/kg/day) was 145.6 (2.4) mg/dl; in assay [1] (Day 7, 10 mg/kg/day), 148.1 (13.8) mg/dl; in assay [1] (Day 14, 10 mg/kg/day), 166.1 (11.2) mg/dl; in assay [1] (Day 21, 10 mg/kg/day), 164.2 (8.0) mg/dl; in assay [1] (Day 28, 10 mg/kg/day), 168.0 (12.6) mg/dl; in assay [1] (Day 35, 10 mg/kg/day) it was 191.6 (8.2) mg/dl. Also, the “Plasma Glucose” value in assay [1] (Day 42, 10 mg/kg/day) was 179.8 (6.1) mg/dl; in assay [1] (Day 49, 10 mg/kg/day) it was 152.1 (8.7) mg/dl; in assay [1] (Day 63, 10 mg/kg/day) it was 168.4 (12.6) mg/dl; in assay [3] (Treatment period day 0, mox @ 10 m/k/d), 141.5333 mg/dL; in assay [3] (Treatment period day 7, mox @ 10 m/k/d) it was 152.8917 mg/dL; in assay [3] (Treatment period day 14, mox @ 10 m/k/d) it was 166.2528 mg/dL. For the same compound, the “Plasma Glucose” value in assay [3] (Treatment period day 21, at this day reduced mox dose to 6.4 m/k/d) was 172.1556 mg/dL; in assay [3] (Treatment period day 23, after two days at 6.4 m/k/d, mox @ 10 m/k/d resumed), 254.0889 mg/dL; in assay [3] (Treatment period day 28, mox @ 10 m/k/d), 251.4833 mg/dL; in assay [3] (Treatment period day 36, stopped mox treatment), 242.5944 mg/dL; in assay [3] (Treatment period day 42, 1 wk after mox is removed) it was 265.9556 mg/dL; in assay [3] (Treatment period day 49, 2 wks after mox is removed), 410.425 mg/dL. The “Plasma Insulin” value was 10.9 (0.9) ng/ml in assay [2] (Day 0, 10 mg/kg/day); 9.3 (1.0) ng/ml in assay [2] (Day 7, 10 mg/kg/day); 12.7 (1.4) ng/ml in assay [2] (Day 14, 10 mg/kg/day); 17.8 (1.2) ng/ml in assay [2] (Day 21, 10 mg/kg/day); 23.4 (1.8) ng/ml in assay [2] (Day 28, 10 mg/kg/day); 24.8 (1.4) ng/ml in assay [2] (Day 35, 10 mg/kg/day). Further, in assay [2] (Day 42, 10 mg/kg/day), the “Plasma Insulin” value was 20.6 (0.7) ng/ml.

In the case of `Clc1cccc(Cl)c1N=C1NCCN1` [clonidine], the “selectivity value (Ki at α2 sites in µM/Ki sites in µM)” value in assay [4] was “less than 4”.
